Measured values taken from US20110158980A1, “METHODS TO TREAT AND SCREEN FOR AGENTS TO TREAT OBESITY” (TRUSTEES OF TUFTS COLLEGE, priority 2008, published 2011).

Tested on: 3T3-L1 adipocytes
Assay: Metabolic flux analysis (stoichiometric model) of adipocyte intermediary metabolism
Type: cell-based
Method: 3T3-L1 preadipocytes were plated onto 24-well plates and expanded in preadipocyte growth medium consisting of DMEM supplemented with calf serum (10% v/v), penicillin and streptomycin. Medium was replenished every other day. Two days post-confluence, the cells were induced to differentiate using an adipogenic cocktail (1 μg/ml insulin, 0.5 mM isobutylmethylxanthine, and 1 μM dexamethasone) added to a basal medium (DMEM with 10% fetal bovine serum and penicillin/streptomycin). After 48 hrs, the first medium was replaced with a second induction medium consisting of the basal adipocyte medium supplemented with only insulin. […] This basal medium was replenished every other day during the remainder of the culture experiments.
A stoichiometric model of adipocyte central carbon metabolism was constructed as described previously (Si Y, Yoon J, Lee K. American journal of physiology 2007; 292:E1637-46). The model consisted of the major pathways of central carbon metabolism (Table 1). Intracellular fluxes were estimated by solving a constrained non-linear optimization problem with stoichiometric and thermodynamic constraints (Nolan R P, Fenley A P, Lee K. Metab Eng 2006; 8:30-45).

[1] = PA 10 mM, day 12 post-induction

With `O=C(O)Cc1ccccc1` [phenylacetate] the “Flux RXN 65 Mitochondrial exchange: 2-Oxoglutarate in, Malate out” value (PA 5 mM, day 12 post-induction) was 36.9 ± 7.3 mmol/g-DNA/2 days, the “Flux RXN 66 Mitochondrial exchange: Pi in, Malate out” value (PA 5 mM, day 12 post-induction) was 79.9 ± 9.7 mmol/g-DNA/2 days and the “Flux RXN 1 Glycolysis: Glucose + ATP = Glucose 6-P + ADP” value [1] was 341.0 ± 14.4 mmol/g-DNA/2 days. For the same molecule, the “Flux RXN 3 Glycolysis: Fructose 6-P + ATP = Glyceraldehyde 3-P + Glycerone-P + ADP” value [1] was 332.9 ± 13.7 mmol/g-DNA/2 days, the “Flux RXN 4 Glycolysis: Glycerone-P = Glyceraldehyde 3-P” value [1] was 309.4 ± 13.0 mmol/g-DNA/2 days and the “Flux RXN 5 Glycolysis: Glyceraldehyde 3-P + NAD+ + ADP + Pi = P-Enolpyruvate + ATP + H2O” value [1] was 650.5 ± 26.0 mmol/g-DNA/2 days. The “Flux RXN 6 Glycolysis: P-Enolpyruvate + ADP + H+ = Pyruvate + ATP” value [1] was 725.6 ± 35.8 mmol/g-DNA/2 days, the “Flux RXN 7 Glycolysis: Pyruvate + NADH + H+ = Lactate + NAD+” value [1] was 427.8 ± 9.4 mmol/g-DNA/2 days and the “Flux RXN 8 Pentose phosphate pathway: Glucose 6-P + 2 NADP+ + H2O = Ribulose 5-P + CO2 + 2 NADPH + 2 H+” value [1] was 24.3 ± 18.5^ mmol/g-DNA/2 days. For the same molecule, the “Flux RXN 9 Pentose phosphate pathway: 3 Ribulose 5-P = 2 Fructose 6-P + Glyceraldehyde 3-P” value [1] was 8.1 ± 6.2^ mmol/g-DNA/2 days, the “Flux RXN 10 TCA cycle (mitochondria) (PDC)” value [1] was 233.7 ± 25.1 mmol/g-DNA/2 days and the “Flux RXN 12 TCA cycle (mitochondria)” value [1] was 132.2 ± 19.3 mmol/g-DNA/2 days. The “Flux RXN 13 TCA cycle (mitochondria)” value [1] was 158.6 ± 26.1 mmol/g-DNA/2 days, the “Flux RXN 14 TCA cycle (mitochondria)” value [1] was 169.9 ± 26.6 mmol/g-DNA/2 days and the “Flux RXN 15 TCA cycle (mitochondria)” value [1] was 170.1 ± 27.0 mmol/g-DNA/2 days. For the same molecule, the “Flux RXN 16 TCA cycle (mitochondria)” value [1] was 110.2 ± 17.8 mmol/g-DNA/2 days, the “Flux RXN 17 TCA cycle: Citrate + CoA + ATP = Acetyl-CoA + Oxaloacetate + ADP + Pi” value [1] was 75.1 ± 16.4 mmol/g-DNA/2 days and the “Flux RXN 18 TCA cycle: Oxaloacetate + NADH + H+ = Malate + NAD+” value [1] was 0.0 ± 0.0^ mmol/g-DNA/2 days. For the same molecule, the “Flux RXN 19 TCA cycle: Malate + NADP+ = Pyruvate + CO2 + NADPH” value [1] was 59.9 ± 9.2 mmol/g-DNA/2 days, the “Flux RXN 20 TCA cycle: Citrate + NADP+ = 2-Oxoglutarate + CO2 + NADPH + H+” value [1] was 26.4 ± 6.9 mmol/g-DNA/2 days and the “Flux RXN 21 TCA cycle: Oxaloacetate + ATP = P-Enolpyruvate + CO2 + ADP” value [1] was 75.1 ± 16.4 mmol/g-DNA/2 days. For the same molecule, the “Flux RXN 22 Oxidative phosphorylation (NADH + 0.5 O2)” value [1] was 213.9 ± 89.2 mmol/g-DNA/2 days, the “Flux RXN 23 Oxidative phosphorylation (FADH2 + 0.5 O2)” value [1] was 189.1 ± 27.3 mmol/g-DNA/2 days and the “Flux RXN 24 Palmitate biosynthesis” value [1] was 9.4 ± 2.0 mmol/g-DNA/2 days. For the same molecule, the “Flux RXN 25 Tripalmitoylglycerol biosynthesis: Glycerone-P + 3 Palmitate to Tripalmitoylglycerol” value [1] was 23.5 ± 3.0 mmol/g-DNA/2 days, the “Flux RXN 26 Tripalmitoylglycerol + 3 H2O = Glycerol + 3 Palmitate” value [1] was 20.6 ± 2.4 mmol/g-DNA/2 days and the “Flux RXN 27 Tripalmitoylglycerol accumulation” value [1] was 2.9 ± 0.6 mmol/g-DNA/2 days. The “Flux RXN 28 Metabolism of ketone bodies” value [1] was 7.8 ± 0.2 mmol/g-DNA/2 days, the “Flux RXN 29 Metabolism of ketone bodies” value [1] was 0.0 ± 0.0^ mmol/g-DNA/2 days and the “Flux RXN 30 Metabolism of ketone bodies (to 3-Hydroxybutyrate)” value [1] was 15.9 ± 0.7 mmol/g-DNA/2 days. For the same molecule, the “Flux RXN 31 Amino acid metabolism: Pyruvate + NH4+ + NADPH = Alanine” value [1] was 0.5 ± 0.1 mmol/g-DNA/2 days, the “Flux RXN 32 Amino acid metabolism: Aspartate + NH4+ = Asparagine” value [1] was 2.9 ± 0.2 mmol/g-DNA/2 days and the “Flux RXN 33 Amino acid metabolism: Aspartate = Oxaloacetate + NH4+ + NADH” value [1] was 0.0 ± 0.0^ mmol/g-DNA/2 days. For the same molecule, the “Flux RXN 34 Amino acid metabolism: Cysteine = Pyruvate + NH4+ + NADH” value [1] was 0.0 ± 0.0^ mmol/g-DNA/2 days, the “Flux RXN 35 Amino acid metabolism: Glutamate = 2-Oxoglutarate + NH4+ + NADH” value [1] was 0.0 ± 0.0 mmol/g-DNA/2 days and the “Flux RXN 36 Amino acid metabolism: Glutamate + NH4+ + ATP = Glutamine” value [1] was 0.0 ± 0.0 mmol/g-DNA/2 days. For the same molecule, the “Flux RXN 37 Amino acid metabolism: Serine + THF = Glycine” value [1] was 6.2 ± 0.4^ mmol/g-DNA/2 days, the “Flux RXN 38 Amino acid metabolism: Histidine + THF = Glutamate + NH4+” value [1] was 0.5 ± 0.1 mmol/g-DNA/2 days and the “Flux RXN 39 Amino acid metabolism: Isoleucine + 2 CoA” value [1] was 7.5 ± 0.2 mmol/g-DNA/2 days. The “Flux RXN 40 Amino acid metabolism: Leucine + CoA + CO2 + ATP” value [1] was 7.9 ± 0.2 mmol/g-DNA/2 days, the “Flux RXN 41 Amino acid metabolism: Lysine = 2-Oxoadipate + 2 NH4+ + 3 NADH” value [1] was 0.0 ± 0.0^ mmol/g-DNA/2 days and the “Flux RXN 42 Amino acid metabolism: 2-Oxoadipate + CoA” value [1] was 0.0 ± 0.0^ mmol/g-DNA/2 days. The “Flux RXN 43 Amino acid metabolism: Methionine + Serine + ATP + CoA + THF” value [1] was 0.0 ± 0.0^ mmol/g-DNA/2 days, the “Flux RXN 44 Amino acid metabolism: Phenylalanine + O2 + NADH = Tyrosine” value [1] was 0.1 ± 0.3^ mmol/g-DNA/2 days and the “Flux RXN 45 Amino acid metabolism: Glutamate + ATP + 2 NADPH = Proline” value [1] was 1.5 ± 0.1 mmol/g-DNA/2 days. The “Flux RXN 46 Amino acid metabolism: Serine = Pyruvate + NH4+” value [1] was 0.0 ± 0.0^ mmol/g-DNA/2 days, the “Flux RXN 47 Amino acid metabolism: Threonine + CoA to Glycine” value [1] was 0.2 ± 0.2 mmol/g-DNA/2 days and the “Flux RXN 48 Amino acid metabolism: Tryptophan + 3 O2 + NADPH = 2-Oxoadipate + Alanine + CO2 + NH4+” value [1] was 0.0 ± 0.0^ mmol/g-DNA/2 days. For the same molecule, the “Flux RXN 49 Amino acid metabolism: Tyrosine + 2 O2” value [1] was 0.2 ± 0.5^ mmol/g-DNA/2 days, the “Flux RXN 50 Amino acid metabolism: Valine + CoA” value [1] was 3.8 ± 0.4 mmol/g-DNA/2 days and the “Flux RXN 51 Plasma exchange: Palmitate” value [1] was 0.8 ± 0.1 mmol/g-DNA/2 days. For the same molecule, the “Flux RXN 52 Plasma exchange: Acetoacetate” value [1] was 0.0 ± 0.1 mmol/g-DNA/2 days, the “Flux RXN 53 Plasma exchange: Alanine” value [1] was 0.5 ± 0.1 mmol/g-DNA/2 days and the “Flux RXN 54 Plasma exchange: Aspartate” value [1] was 2.9 ± 0.2 mmol/g-DNA/2 days. For the same molecule, the “Flux RXN 55 Plasma exchange: Cysteine” value [1] was 0.0 ± 0.0^ mmol/g-DNA/2 days, the “Flux RXN 56 Plasma exchange: Glutamate” value [1] was 0.9 ± 0.1 mmol/g-DNA/2 days and the “Flux RXN 57 Plasma exchange: Glycine” value [1] was 6.4 ± 0.4 mmol/g-DNA/2 days. The “Flux RXN 58 Plasma exchange: Serine” value [1] was 6.2 ± 0.4^ mmol/g-DNA/2 days, the “Flux RXN 59 Plasma exchange: Tyrosine” value [1] was 0.1 ± 0.2^ mmol/g-DNA/2 days and the “Flux RXN 60 Plasma exchange: O2 (calculated oxygen uptake rate)” value [1] was 202.1 ±59.1 *^ mmol/g-DNA/2 days. The “Flux RXN 61 Plasma exchange: CO2” value [1] was 582.8 ± 66.5 mmol/g-DNA/2 days, the “Flux RXN 62 Plasma exchange: NH4+” value [1] was 16.5 ± 1.3 mmol/g-DNA/2 days and the “Flux RXN 63 Mitochondrial exchange: Pyruvate” value [1] was 357.2 ± 37.5 mmol/g-DNA/2 days. For the same molecule, the “Flux RXN 64 Mitochondrial exchange: Malate in, Citrate out” value [1] was 101.5 ± 16.0 mmol/g-DNA/2 days, the “Flux RXN 65 Mitochondrial exchange: 2-Oxoglutarate in, Malate out” value [1] was 26.4 ± 6.9 mmol/g-DNA/2 days and the “Flux RXN 66 Mitochondrial exchange: Pi in, Malate out” value [1] was 59.9 ± 9.2 mmol/g-DNA/2 days. The “Decrease of flux through phosphoenolpyruvate carboxykinase” value (phenylacetate) was 40%, the “Reduction of de novo fatty acid synthesis” value (phenylacetate) was about 40% and the “Reduction of triglyceride accumulation” value (phenylacetate) was 40%. For the same molecule, the “Increase of flux through glycolysis” value (phenylacetate (5 and 10 mM), day 12 post-induction) was 15˜60%, the “Decrease of total flux of pyruvate into the mitochondrial reactions” value (phenylacetate at the higher concentration (10 mM)) was 29% and the “Decrease of flux through the PPP” value (phenylacetate, noted only for the 5 mM condition) was 83%. For the same molecule, the “Increase of fluxes through other lipogenic reactions (including esterification)” value (phenylacetate, higher concentration having the larger effect) was 64˜75%.
